Laboratory results reported in ChEMBL document CHEMBL1201862, “PubChem BioAssay data set” (2004).
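Step 1: Grow cells in 96-well plates. Step 2: Expose to compound for 48 hours at 5 concentrations. Step 3: Interpolate endpoints linearly; if unreached, use highest concentration. Here, GI50 denotes the concentration required for 50% inhibition of growth.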 Active and inactive are the calls of the source. No stated cut-off is given here; in the data, active = GI50 up to about 1.1 µM and inactive = higher.

Tests used:
Test in all cases: inhibition of tumour cell growth, NCI panel, 48 h
[1] = test system: 786-0
[2] = test system: A498
[3] = test system: A549
[4] = test system: ACHN
[5] = test system: CAKI-1
[6] = test system: CCRF-CEM
[7] = test system: COLO 205
[8] = test system: DLD-1
[9] = test system: DMS-114
[10] = test system: DMS-273
[11] = test system: EKVX
[12] = test system: HCC 2998
[13] = test system: HCT-116
[14] = test system: HCT-15
[15] = test system: HL-60
[16] = test system: HOP-18
[17] = test system: HOP-62
[18] = test system: HOP-92
[19] = test system: HT-29
[20] = test system: IGROV-1
[21] = test system: K562
[22] = test system: KM-20L2
[23] = test system: KM12
[24] = test system: LOX IMVI
[25] = test system: LXFL 529
[26] = test system: M14
[27] = test system: MOLT-4
[28] = test system: Malme-3M
[29] = test system: NCI-H226
[30] = test system: NCI-H23
[31] = test system: NCI-H460
[32] = test system: NCI-H522
[33] = test system: OVCAR-3
[34] = test system: OVCAR-4
[35] = test system: OVCAR-5
[36] = test system: OVCAR-8
[37] = test system: RPMI-8226
[38] = test system: RXF 393
[39] = test system: RXF 631
[40] = test system: SF-268
[41] = test system: SF-295
[42] = test system: SF-539
[43] = test system: SK-MEL-28
[44] = test system: SK-MEL-2
[45] = test system: SK-MEL-5
[46] = test system: SK-OV-3
[47] = test system: SN12C
[48] = test system: SNB-19
[49] = test system: SNB-75
[50] = test system: SNB-78
[51] = test system: SR
[52] = test system: SW-620
[53] = test system: U-251
[54] = test system: UACC-257
[55] = test system: UACC-62
[56] = test system: UO-31
[57] = test system: BT-549
[58] = test system: DU-145
[59] = test system: Hs-578T
[60] = test system: M19-MEL
[61] = test system: MCF7
[62] = test system: MDA-MB-435
[63] = test system: MDA-N
[64] = test system: PC-3
[65] = test system: T47D
[66] = test system: TK-10
[67] = test system: XF498

Measured: GI50

Cc1ccc(/N=N/c2c(-c3ccccc3)nn(C(=O)CC(=O)Nc3ccc(Cl)cc3)c2-c2ccccc2)cc1
56.4 µM: [14]
inactive: [1] 36.5 µM | [2] 31.8 µM | [3] 78.9 µM | [4] 79.6 µM | [5] 55 µM | [6] 18.6 µM | [7] 59.3 µM | [8] 83.6 µM | [9] 44.5 µM | [10] > 100 µM | [11] 2.3 µM | [12] 56.1 µM | [13] 61.5 µM | [15] 32.4 µM | [16] > 100 µM | [17] 33.8 µM | [18] 23.9 µM | [19] 65.3 µM | [20] > 100 µM | [21] 42.1 µM | [22] 63.4 µM | [23] 38.3 µM | [24] 46.7 µM | [25] 27.9 µM | [26] 65.2 µM | [27] 21.3 µM | [28] 83.6 µM | [29] 36.6 µM | [30] 44.2 µM | [31] > 100 µM | [32] 37.8 µM | [33] 26.2 µM | [34] 77.3 µM | [35] 48.6 µM | [36] 32.1 µM | [37] 18.8 µM | [38] 28.4 µM | [39] 59.4 µM | [40] 70.5 µM | [41] 24.4 µM | [42] 58.9 µM | [43] > 100 µM | [44] 81.8 µM | [45] 90.8 µM | [46] > 100 µM | [47] > 100 µM | [48] 49.7 µM | [49] 20.6 µM | [50] 79.6 µM | [51] 12.3 µM | [52] 90.8 µM | [53] 40 µM | [54] > 100 µM | [55] 70.5 µM | [56] 27.7 µM

N#C/C(=C\c1ccc2ccccc2c1)C(=O)c1ccccc1
inactive: [1] > 61.8 µM | [2] > 85.7 µM | [3] > 100 µM | [4] > 100 µM | [57] 52.2 µM | [5] > 100 µM | [6] 23.8 µM | [7] > 100 µM | [8] > 100 µM | [9] > 100 µM | [10] > 100 µM | [58] > 100 µM | [11] > 100 µM | [12] > 100 µM | [13] > 61.4 µM | [15] 30.9 µM | [16] > 100 µM | [17] 20.8 µM | [19] > 67.3 µM | [59] 22.2 µM | [20] > 100 µM | [21] > 65.8 µM | [22] > 100 µM | [23] > 100 µM | [24] 26.1 µM | [25] > 86.7 µM | [26] > 64.9 µM | [60] > 87.9 µM | [61] > 100 µM | [62] 19.4 µM | [63] 44.6 µM | [27] 23.5 µM | [28] > 95.7 µM | [29] > 100 µM | [30] > 57.4 µM | [31] > 94.6 µM | [32] > 92 µM | [33] > 65.2 µM | [34] > 100 µM | [35] > 100 µM | [36] 33.7 µM | [64] 51.5 µM | [37] 34.2 µM | [38] 36.2 µM | [40] 63.5 µM | [41] > 54.6 µM | [42] > 100 µM | [43] > 47 µM | [44] > 100 µM | [45] > 63 µM | [46] > 46.8 µM | [47] > 66.5 µM | [48] > 82.4 µM | [49] 93.1 µM | [50] > 100 µM | [51] 37.8 µM | [52] 42.4 µM | [65] 36 µM | [66] > 100 µM | [53] 21.9 µM | [54] 82 µM | [55] > 57 µM | [56] > 86.7 µM | [67] > 100 µM
65 µM: [14]

CC1c2[nH]c3ccccc3c2CCN1O (stereo unspecified)
inactive: [1] > 100 µM | [2] > 100 µM | [3] > 100 µM | [4] > 100 µM | [5] > 100 µM | [6] > 100 µM | [7] > 100 µM | [8] > 100 µM | [9] > 100 µM | [10] > 100 µM | [11] > 100 µM | [12] > 100 µM | [13] > 100 µM | [15] > 100 µM | [16] > 100 µM | [18] > 100 µM | [19] > 100 µM | [20] > 100 µM | [21] > 100 µM | [22] > 100 µM | [23] > 100 µM | [24] > 100 µM | [25] > 100 µM | [26] > 100 µM | [60] > 100 µM | [27] > 100 µM | [28] > 100 µM | [29] 23.1 µM | [30] > 100 µM | [32] > 100 µM | [33] > 100 µM | [34] > 100 µM | [35] > 100 µM | [36] > 100 µM | [37] > 100 µM | [38] > 100 µM | [39] > 100 µM | [40] > 100 µM | [41] > 100 µM | [42] > 100 µM | [43] > 100 µM | [44] > 100 µM | [45] > 100 µM | [46] > 100 µM | [47] > 100 µM | [48] > 100 µM | [49] 68.5 µM | [50] > 100 µM | [52] > 100 µM | [66] > 100 µM | [53] > 100 µM | [54] > 100 µM | [55] > 100 µM | [56] 29.4 µM
> 100 µM: [14]

C=CC1C(OC2OC(CO)C(O)C(O)C2O)OC=C(C(=O)OC)C1CC=O (stereo unspecified)
> 100 µM: [14]
inactive: [1] > 100 µM | [2] > 100 µM | [3] > 100 µM | [4] > 100 µM | [7] > 100 µM | [8] > 100 µM | [11] > 100 µM | [15] > 100 µM | [16] > 100 µM | [17] > 100 µM | [20] > 100 µM | [21] > 100 µM | [22] > 100 µM | [23] > 100 µM | [24] > 100 µM | [25] > 100 µM | [26] > 100 µM | [60] > 100 µM | [27] > 100 µM | [28] > 100 µM | [29] 37.8 µM | [30] > 100 µM | [33] > 100 µM | [34] > 100 µM | [37] > 100 µM | [38] > 100 µM | [39] > 100 µM | [40] > 100 µM | [41] > 100 µM | [42] > 100 µM | [43] > 100 µM | [44] > 100 µM | [45] > 100 µM | [46] > 100 µM | [47] > 100 µM | [48] > 100 µM | [49] > 100 µM | [50] > 100 µM | [51] > 100 µM | [52] 81.8 µM | [53] > 100 µM | [55] > 100 µM | [56] > 100 µM

Clc1cc(Cl)c2n[se]nc2c1
> 100 µM: [14]
inactive: [1] > 100 µM | [2] > 100 µM | [3] > 100 µM | [4] > 100 µM | [5] > 100 µM | [6] > 100 µM | [10] > 100 µM | [11] > 100 µM | [12] > 100 µM | [13] > 100 µM | [15] > 100 µM | [16] > 100 µM | [17] > 100 µM | [19] > 100 µM | [20] > 100 µM | [21] > 100 µM | [22] > 100 µM | [23] > 100 µM | [24] 69.7 µM | [26] > 100 µM | [60] > 100 µM | [27] > 100 µM | [28] > 100 µM | [30] > 100 µM | [31] > 100 µM | [32] > 100 µM | [34] > 100 µM | [35] > 100 µM | [36] > 100 µM | [37] > 100 µM | [38] > 100 µM | [39] > 100 µM | [40] > 100 µM | [41] > 100 µM | [42] > 100 µM | [43] > 100 µM | [44] 94 µM | [45] > 100 µM | [46] > 100 µM | [47] > 100 µM | [48] > 100 µM | [49] 60.1 µM | [50] > 100 µM | [51] > 100 µM | [52] > 100 µM | [66] 38.3 µM | [53] > 100 µM | [54] > 100 µM | [55] > 100 µM | [56] > 100 µM
